Consider 28 molecules from patent publication US20240270741A1 (Cogent Biosciences, Inc., priority 2023, published 2024).

For the assay, the target named is FGFR2 (Homo sapiens, UniProt P21802). Briefly: FGFR wild type enzyme assay (HTRF KinEASE-TK), FGFR2. Conditions: Enz FGFR2 (nM), FGFR2 wild type enzyme assay. (Time-resolved FRET reads energy transfer from a long-lived donor to a nearby acceptor.)
FGFR2, sequence (P21802 399-821 limits assumed): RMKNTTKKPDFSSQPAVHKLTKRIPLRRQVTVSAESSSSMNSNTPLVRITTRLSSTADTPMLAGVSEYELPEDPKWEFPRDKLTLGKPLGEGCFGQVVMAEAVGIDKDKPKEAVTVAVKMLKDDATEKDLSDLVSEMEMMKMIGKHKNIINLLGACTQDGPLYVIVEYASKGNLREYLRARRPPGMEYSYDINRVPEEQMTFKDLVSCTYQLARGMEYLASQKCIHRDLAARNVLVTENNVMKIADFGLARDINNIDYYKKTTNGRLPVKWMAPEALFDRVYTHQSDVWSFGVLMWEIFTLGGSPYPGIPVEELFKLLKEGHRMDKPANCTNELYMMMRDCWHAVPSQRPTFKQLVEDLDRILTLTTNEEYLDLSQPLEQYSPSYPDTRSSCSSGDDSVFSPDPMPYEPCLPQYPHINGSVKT
The IC50 is the concentration that inhibits the measured activity by half. In the case of `Cc1cc(Sc2cc(-c3cnn(C4CCN(C)CC4)c3C)cn3ncc(C#N)c23)c(C#N)cc1F` [Example 371, 4-((2-cyano-4-fluoro-5-methylphenyl)thio)-6-(5-methyl-1-(1-methylpiperidin-4-yl)-1H-pyrazol-4-yl)pyrazolo[1,5-a]pyridine-3-carbonitrile], the IC50 turned out to be 5 nM. In the case of `Cc1c(-c2cc(Sc3ccc(F)cc3C#N)c3c(C#N)cnn3c2)cnn1[C@@H]1C[C@H]2CC[C@@H](C1)N2C(=O)CO` [Example 372, 4-((2-cyano-4-fluorophenyl)thio)-6-(1-((1R,3s,5S)-8-(2-hydroxyacetyl)-8-azabicyclo[3.2.1]octan-3-yl)-5-methyl-1H-pyrazol-4-yl)pyrazolo[1,5-a]pyridine-3-carbonitrile], the IC50 was 1 nM.

Regarding `CC(=O)N1[C@@H]2CC[C@H]1C[C@H](n1ncc(-c3cc(Sc4ccc(F)cc4C#N)c4c(C#N)cnn4c3)c1C)C2` [Example 373, 6-(1-((1R,3s,5S)-8-acetyl-8-azabicyclo[3.2.1]octan-3-yl)-5-methyl-1H-pyrazol-4-yl)-4-((2-cyano-4-fluorophenyl)thio)pyrazolo [1,5-a]pyridine-3-carbonitrile], the 50% inhibitory concentration (IC50) amounted to 2 nM.

`Cc1noc(Cn2cc(-c3cc(Sc4ccccc4C#N)c4c(C#N)cnn4c3)cn2)n1` [Example 374, 4-((2-cyanophenyl)thio)-6-(1-((3-methyl-1,2,4-oxadiazol-5-yl)methyl)-1H-pyrazol-4-yl)pyrazolo[1,5-a]pyridine-3-carbonitrile]: the midpoint of inhibition, the IC50, lay at 1 nM. Next, `Cn1ccc(Cn2cc(-c3cc(Sc4ccccc4C#N)c4c(C#N)cnn4c3)cn2)n1` [Example 375, 4-((2-cyanophenyl)thio)-6-(1-((1-methyl-1H-pyrazol-3-yl)methyl)-1H-pyrazol-4-yl)pyrazolo[1,5-a]pyridine-3-carbonitrile]: 0.6 nM. In turn, `Cc1c(-c2cc(Sc3ncc(Cl)cc3F)c3c(C#N)cnn3c2)cnn1C1CCN(C)CC1` [Example 376, 4-((5-chloro-3-fluoropyridin-2-yl)thio)-6-(5-methyl-1-(1-methylpiperidin-4-yl)-1H-pyrazol-4-yl)pyrazolo[1,5-a]pryidine-3-carbonitrile] showed an IC50 of 5.5 nM. Molecule `Cc1cnc(Sc2cc(-c3cnn(C4CCN(C)CC4)c3C)cn3ncc(C#N)c23)c(F)c1` [Example 377, 4-((3-fluoro-5-methylpyridin-2-yl)thio)-6-(5-methyl-1-(1-methylpiperidin-4-yl)-1H-pyrazol-4-yl)pyrazolo[1,5-a]pyridine-3-carbonitrile] came in with an IC50 of 11 nM. `Cc1ccc(Sc2cc(-c3cnn(C4CCN(C)CC4)c3C)cn3ncc(C#N)c23)c(C#N)c1` [Example 378, 4-((2-cyano-4-methylphenyl)thio)-6-(5-methyl-1-(1-methylpiperidin-4-yl)-1H-pyrazol-4-yl)pyrazolo[1,5-a]pyridine-3-carbonitrile] came in with an IC50 of 4 nM. Compared with the last molecule, the IC50 is about 2.8-fold lower. Consider `COc1ccc(Sc2cc(-c3cnn(C4CCN(C)CC4)c3C)cn3ncc(C#N)c23)c(C#N)c1` [Example 379, 4-((2-cyano-4-methoxyphenyl)thio)-6-(5-methyl-1-(1-methylpiperidin-4-yl)-1H-pyrazol-4-yl)pyrazolo[1,5-a]pyridine-3-carbonitrile], for which the IC50 was 25 nM. Regarding `Cc1c(-c2cc(Sc3ccc(F)cc3C#N)c3c(C#N)cnn3c2)cnn1C1CCN([C@@H](C)CO)CC1` [Example 380, (S)-4-((2-cyano-4-fluorophenyl)thio)-6-(1-(1-(1-hydroxypropan-2-yl)piperidin-4-yl)-5-methyl-1H-pyrazol-4-yl)pyrazolo[1,5-a]pyridine-3-carbonitrile], it took 1 nM to reach half-maximal inhibition (IC50). Next, `Cc1c(-c2cc(Sc3ccc(F)cc3C#N)c3c(C#N)cnn3c2)cnn1C1CCN([C@H](C)CO)CC1` [Example 381, (R)-4-((2-cyano-4-fluorophenyl)thio)-6-(1-(1-(1-hydroxypropan-2-yl)piperidin-4-yl)-5-methyl-1H-pyrazol-4-yl)pyrazolo[1,5-a]pyridine-3-carbonitrile]: 1 nM.

`CC(=O)N1CCC(n2ncc(-c3cc(Sc4nccc(C)c4F)c4c(C#N)cnn4c3)c2C)CC1` [Example 382, 6-(1-(1-acetylpiperidin-4-yl)-5-methyl-1H-pyrazol-4-yl)-4-((3-fluoro-4-methylpyridin-2-yl)thio)pyrazolo[1,5-a]pyridine-3-carbonitrile] gave an IC50 of 14 nM. Next, `CC(=O)N[C@H]1CC[C@@H](n2ncc(-c3cc(Sc4nc(N)ccc4F)c4c(C#N)cnn4c3)c2C)CC1` [Example 383, N-((1s,4s)-4-(4-(4-((6-amino-3-fluoropyridin-2-yl)thio)-3-cyanopyrazolo[1,5-a]pyridin-6-yl)-5-methyl-1H-pyrazol-1-yl)cyclohexyl)acetamide]: 1 nM; `CC(=O)N[C@H]1CC[C@@H](n2ncc(-c3cc(Sc4nc(F)ccc4F)c4c(C#N)cnn4c3)c2C)CC1` [Example 384, N-((1s,4s)-4-(4-(3-cyano-4-((3,6-difluoropyridin-2-y)thio)pyrazolo[1,5-a]pyridin-6-yl)-5-methyl-1H-pyrazol-1-yl)cyclohexyl)acetamide]: 1 nM; `Cc1c(-c2cc(Sc3cccc(Cl)c3C#N)c3c(C#N)cnn3c2)cnn1C1CCN(C)CC1` [Example 385, 4-((3-chloro-2-cyanophenyl)thio)-6-(5-methyl-1-(1-methylpiperidin-4-yl)-1H-pyrazol-4-yl)pyrazolo[1,5-a]pyridine-3-carbonitrile]: 1.5 nM. Regarding `COc1cc(Sc2cc(-c3cnn(C4CCN(C)CC4)c3C)cn3ncc(C#N)c23)c(C#N)cc1F` [Example 386, 4-((2-cyano-4-fluoro-5-methoxyphenyl)thio)-6-(5-methyl-1-(1-methylpiperidin-4-yl)-1H-pyrazol-4-yl)pyrazolo[1,5-a]pyridine-3-carbonitrile], half-maximal inhibition (IC50) required 5 nM. Next, `Cc1c(-c2cc(Sc3ccc(F)cc3C#N)c3c(C#N)cnn3c2)cnn1[C@H]1CCN(C)C(C)(C)C1` [Example 387, (S)-4-((2-cyano-4-fluorophenyl)thio)-6-(5-methyl-1-(1,2,2-trimethylpiperidin-4-yl)-1H-pyrazol-4-yl)pyrazolo[1,5-a]pyridine-3-carbonitrile]: 1 nM; `Cc1c(-c2cc(Sc3ccc(F)cc3C#N)c3c(C#N)cnn3c2)cnn1[C@@H]1CCN(C)C(C)(C)C1` [Example 388, (R)-4-((2-cyano-4-fluorophenyl)thio)-6-(5-methyl-1-(1,2,2-trimethylpiperidin-4-yl)-1H-pyrazol-4-yl)pyrazolo[1,5-a]pyridine-3-carbonitrile]: 0.5 nM; `Cc1c(-c2cc(Sc3ncc(F)cc3F)c3c(C#N)cnn3c2)cnn1[C@H]1CCN(C)C(C)(C)C1` [Example 389, (S)-4-((3,5-difluoropyridin-2-yl)thio)-6-(5-methyl-1-(1,2,2-trimethylpiperidin-4-yl)-1H-pyrazol-4-yl)pyrazolo[1,5-a]pyridine-3-carbonitrile]: 5 nM. `Cc1c(-c2cc(Sc3ncc(F)cc3F)c3c(C#N)cnn3c2)cnn1[C@@H]1CCN(C)C(C)(C)C1` [Example 390, (R)-4-((3,5-difluoropyridin-2-yl)thio)-6-(5-methyl-1-(1,2,2-trimethylpiperidin-4-yl)-1H-pyrazol-4-yl)pyrazolo[1,5-a]pyridine-3-carbonitrile] displayed an IC50 of 42 nM. Next, `Cc1c(-c2cc(Sc3ccc(F)cc3C#N)c3c(C#N)cnn3c2)cnn1[C@H]1CC[C@H](N(C)CCO)CC1` [Example 391, 4-((2-cyano-4-fluorophenyl)thio)-6-(1-((1r,4r)-4-((2-hydroxyethyl)(methyl)ami-no)cyclohexyl)-5-methyl-1H-pyrazol-4-yl)pyrazolo[1,5-a]pyridine-3-carbonitrile]: 1 nM; `CN(C)[C@H]1CC[C@@H](n2cc(-c3cc(Sc4ncccc4F)c4c(C#N)cnn4c3)nn2)CC1` [Example 392, 6-[1-[4-(dimethylamino)cyclohexyl]triazol-4-yl]-4-[(3-fluoro-2-pyridyl)sulfanyl] pyrazolo [1,5-a]pyridine-3-carbonitrile]: 12 nM; `CC(=O)N[C@H]1CC[C@@H](n2cc(-c3cc(Sc4ncccc4F)c4c(C#N)cnn4c3)c(C)n2)CC1` [Example 393, N-((1s,4s)-4-(4-(3-cyano-4-((3-fluoropyridin-2-yl)thio)pyrazolo[1,5-a]pyridin-6-yl)-3-methyl-1H-pyrazol-1-yl)cyclohexyl)acetamide]: 6 nM. In turn, `CC(=O)N[C@H]1CC[C@@H](n2cc(-c3cc(Sc4ccccc4C#N)c4c(C#N)cnn4c3)c(C)n2)CC1` [Example 394, N-((1s,4s)-4-(4-(3-cyano-4-((2-cyanophenyl)thio)pyrazolo [1,5-a]pyridin-6-yl)-3-methyl-1H-pyrazol-1-yl)cyclohexyl)acetamide] displayed an IC50 of 3 nM. Next, `CN1CCC(n2ncc(-c3cc(Sc4ncccc4F)c4c(C#N)cnn4c3)c2Cl)CC1` [Example 395, 6-(5-chloro-1-(1-methylpiperidin-4-yl)-1H-pyrazol-4-yl)-4-((3-fluoropyridin-2-yl)thio)pyrazolo[1,5-a]pyridine-3-carbonitrile]: 3 nM. Molecule `CN1CCC(n2ncc(-c3cc(Sc4ccccc4C#N)c4c(C#N)cnn4c3)c2Cl)CC1` [Example 396, 6-(5-chloro-1-(1-methylpiperidin-4-yl)-1H-pyrazol-4-yl)-4-((2-cyanophenyl)thio)pyrazolo [1,5-a]pyridine-3-carbonitrile] showed an IC50 of 1 nM. Against the preceding molecule, the IC50 is about 3-fold lower.

`CC(=O)N1CCC(n2ncc(-c3cc(Sc4ncccc4F)c4c(C#N)cnn4c3)c2F)CC1` [Example 397, 6-(1-(1-acetylpiperidin-4-yl)-5-fluoro-1H-pyrazol-4-yl)-4-((3-fluoropyridin-2-yl)thio)pyrazolo[1,5-a]pyridine-3-carbonitrile] gave a concentration for half-maximal inhibition (IC50) of 5 nM. This IC50 lies about 5-fold higher than the previous one.

For `CC(=O)N1CCC(n2ncc(-c3cc(Sc4ccccc4C#N)c4c(C#N)cnn4c3)c2F)CC1` [Example 398, 6-(1-(1-acetylpiperidin-4-yl)-5-fluoro-1H-pyrazol-4-yl)-4-((2-cyanophenyl)thio)pyrazolo [1,5-a]pyridine-3-carbonitrile], the IC50 came out at 2 nM.
